Assay results: patent publication US20240287089A1, “Preparation and Uses of 7-Azaindenoisoquinolines” (Purdue Research Foundation, priority 0001, published 2024)

How the values were obtained:
RAJI lymphoma cells = assay: MTS cell viability IC50 assay; type: cell-based; conditions: RAJI, 72 h
Protocol: Cytotoxicity Results in Raji Non-Hodgkin's Lymphoma Cells. MTS experiments were then conducted to test the anti-proliferative effects of 7-aza-8,9-methylenedioxyindenoisoquinolines in Raji cells. Cells were incubated at 2-2000 nM of each drug for 72 h, and cell viabilities were quantified using the MTS assay. […] This potency trend generally correlated with the western blot results, in which G106 and G108 […] show weaker Myc downregulation.
MTS Cell Viability IC50 Assay. Drug solutions for MTS IC50 assays of suspension cell lines were made from DMSO stocks by serial-dilutions in 1×PBS (10010-031, Gibco). To set up treatments, drug solutions were plated in triplicates to 96-well tissue culture plates, to which cell-containing media was added to a total volume of 100 μL/well. 100%-viability controls were untreated cells. 2000 cells/well were plated for all suspension cell lines except 3000 cells/well for KMS-27 and 10000 cells/well for CHLA-32. Blanks were cell-free media. Drug treatments were maintained for 72 hr at 37° C. with 5% CO2. To quantify cells, CellTiter 96 AQueous MTS Reagent Powder (G1111, Promega) was dissolved and mixed with phenazine methosulfate (PMS, Sigma-Aldrich P9625) according to manufacturer's instructions. MTS/PMS mix ([…]) was added to treatment wells, 100%-viability control wells, and blank wells. Colors were developed at 37° C. with 5% CO2 for 4 h and absorbance at 490 nm was measured by BioTek Synergy 4 system. To obtain %-viability, A490 values were corrected by blank subtraction, normalized to 100%-viability control, and averaged. Average %-viabilities were plotted against drug dosages to obtain dose-response curves. […] For adherent cell lines, the MTS IC50 assays were conducted the same way as for suspension cell lines except for cell plating and drug treatment. For cell plating, 50 μL of 2000 cells were plated in triplicates to a 96-well tissue culture plate. Cells were allowed sufficient time to become adherent. Serial-diluted drug solutions were made the same way as in the MTS IC50 assays. To set up treatments, drug solutions were mixed with media to two-fold of the final concentrations, and 50 μL of such drug-media mix was then added to 50 μL of plated cells.

[1] = test system: Myc protein in MCF-7 breast cancer cells; assay: Western blot of Myc protein level; type: cell-based; conditions: MCF-7, 0.5, 1.0, 2.0 μM, 24 h
Protocol: Western blot. G-quadruplex formed in the MYC promoter functions as a transcriptional silencer. To determine the effects of 7-aza-8,9-methylenedioxyindenosioquinolines on the MYC protein level, a western blotting experiment was carried out using MCF-7 breast cancer cells. Western blot experiments were conducted to examine the downregulation effects of 7-aza-8,9-methylenedioxyindenosioquinolines on Myc protein level (FIG. 5). MCF-7 breast cancer cells were incubated for 24 h at 0, 0.5, 1.0, and 2.0 μM of G-101-108.
Western Blotting. MCF-7 cells were grown and treated in 6-well tissue culture plates. After collection, cells were suspended in 140 μL lysis buffer containing 1× RIPA buffer, 1× Protease Inhibitor Cocktail (A32965, Thermo Scientific), 1× NuPAGE LDS Sample Buffer (NP0007, Invitrogen), and 1× Sample Reducing Agent (NP0009, Invitrogen). The cell lysates were heated to 75° C. for 10 min. After sonication, 8 μL of each sample was loaded on a 4-15% Mini-PROTEAN TGX gel (4561086, Bio-Rad). […] Myc and GAPDH were detected with 1:1000-diluted monoclonal anti-Myc antibody (5605S, Cell Signaling Technology) and 1:2000-diluted monoclonal anti-GAPDH antibody (5174S, Cell Signaling Technology), respectively. Primary antibodies were detected by anti-Rabbit IgG HRP-linked antibody (7074S, Cell Signaling Technology). […]

human Topo1 = human Topo1 (Homo sapiens (Human), UniProt P11387); assay: Topo1-mediated DNA cleavage assay; type: biochemical; conditions: 10 μM
Protocol: 7-Aza-8,9-methylenedioxyindenoisoquinoline compounds were examined for inhibitory effects on Topol-mediated DNA relaxation (FIG. 11A), and for Topol poison effect using Topol-Mediated DNA Cleavage Assay (FIG. 11B).
Topol-Mediated DNA Cleavage Assay. Human Topoisomerase I Assay Kit (TG1015-1A) from Topogen was used to examine the compounds for Topol poison effect. Assay was performed according to manufacturer's instructions. CPT at 10 μM was used as a positive control. […] Assay samples were incubated at 37° C. for 30 min followed by reaction termination with 10% SDS. This was followed by a 15 min Proteinase K digestion for 15 min at 37° C. to degrade Topo1 and a 1:1 volume chloroform:isoamyl alcohol DNA extraction. Samples were electrophoresed on a 1% agarose gel in TBE buffer for 2 h at 46 v. Both the agarose gel and buffer contained 0.5 μg/ml of ethidium bromide.

[2] = Stability in blood plasma; conditions: human plasma, 37° C.
Protocol: (§1) Analysis of Plasma Protein Binding and Stability in Human and Mouse Blood Plasma by Equilibrium Dialysis. Frozen plasma (stored at −80° C.) was thawed immediately in a 37° C. water bath. The working solutions of test compound and control compound were prepared in DMSO at 200 μM concentration, and the working solutions were spiked into plasma. The final concentration of compound was 1 μM. The final concentration of DMSO was 0.5%. Ketoconazole was used as positive control in the assay. The dialysis membranes were soaked in ultrapure water for 60 min to separate strips, then in 20% ethanol for 20 min, and then finally in dialysis buffer for 20 min. For equilibrium dialysis, each cell contained plasma sample (150 μL) and was dialyzed against an equal volume of dialysis buffer (PBS). The assay was performed in duplicate. The dialysis plate was sealed and incubated at 37° C. with 5% CO2 at 100 rpm for 6 h. At the end of incubation, samples (50 μL) from both buffer and plasma chambers were transferred to wells of a 96-well plate. Plasma (50 μL) was added to each buffer sample and an equal volume of PBS was added to the collected plasma sample. Cold acetonitrile (400 μL) containing internal standards (IS, 100 nM alprazolam, 200 nM labetalol, 200 nM imipramine and 2 μM ketoprofen) was added to precipitate protein and release compounds. Samples were vortexed for 2 min and centrifuged for 30 min at 3,220 g. An aliquot (100 μL) of the supernatant was diluted with ultra-pure H2O (100 μL), and the mixture was used for LC-MS/MS analysis. For stability determination in plasma, a spiked plasma sample (50 μL) was transferred to a new plate and incubated at 37° C., 5% CO2 for 0 and 6 h. At designated time points, PBS (50 μL) was added and mixed thoroughly, followed by the addition of room temperature quench solution [400 μL of acetonitrile containing internal standards (IS, 100 nM alprazolam, 200 nM labetalol, 200 nM imipramine and 2 μM ketoprofen)] to precipitate protein and release compounds. Samples were vortexed for 2 min and centrifuged for 30 min at 3,220 g. An aliquot (400 μL) of the supernatant was diluted by ultra-pure H2O, and the mixture was used for LC-MS/MS analysis. The concentrations of test compounds in the buffer and plasma chambers were determined from peak area ratios.

[3] = Plasma protein binding by equilibrium dialysis; conditions: human plasma
Protocol: as §1

[4] = Plasma protein binding by equilibrium dialysis; conditions: mouse plasma
Protocol: as §1

[5] = Stability in blood plasma; conditions: mouse plasma, 37° C.
Protocol: Analysis of Plasma Protein Binding and Stability in Human and Mouse Blood Plasma by Equilibrium Dialysis. Frozen plasma (stored at −80° C.) was thawed immediately in a 37° C. water bath. The working solutions of test compound and control compound were prepared in DMSO at 200 μM concentration, and the working solutions were spiked into plasma. The final concentration of compound was 1 μM. The final concentration of DMSO was 0.5%. Ketoconazole was used as positive control in the assay. The dialysis membranes were soaked in ultrapure water for 60 min to separate strips, then in 20% ethanol for 20 min, and then finally in dialysis buffer for 20 min. For equilibrium dialysis, each cell contained plasma sample (150 μL) and was dialyzed against an equal volume of dialysis buffer (PBS). The assay was performed in duplicate. The dialysis plate was sealed and incubated at 37° C. with 5% CO2 at 100 rpm for 6 h. At the end of incubation, samples (50 μL) from both buffer and plasma chambers were transferred to wells of a 96-well plate. Plasma (50 μL) was added to each buffer sample and an equal volume of PBS was added to the collected plasma sample. […] The concentrations of test compounds in the buffer and plasma chambers were determined from peak area ratios.

Chain of human Topo1 (P11387 whole entry): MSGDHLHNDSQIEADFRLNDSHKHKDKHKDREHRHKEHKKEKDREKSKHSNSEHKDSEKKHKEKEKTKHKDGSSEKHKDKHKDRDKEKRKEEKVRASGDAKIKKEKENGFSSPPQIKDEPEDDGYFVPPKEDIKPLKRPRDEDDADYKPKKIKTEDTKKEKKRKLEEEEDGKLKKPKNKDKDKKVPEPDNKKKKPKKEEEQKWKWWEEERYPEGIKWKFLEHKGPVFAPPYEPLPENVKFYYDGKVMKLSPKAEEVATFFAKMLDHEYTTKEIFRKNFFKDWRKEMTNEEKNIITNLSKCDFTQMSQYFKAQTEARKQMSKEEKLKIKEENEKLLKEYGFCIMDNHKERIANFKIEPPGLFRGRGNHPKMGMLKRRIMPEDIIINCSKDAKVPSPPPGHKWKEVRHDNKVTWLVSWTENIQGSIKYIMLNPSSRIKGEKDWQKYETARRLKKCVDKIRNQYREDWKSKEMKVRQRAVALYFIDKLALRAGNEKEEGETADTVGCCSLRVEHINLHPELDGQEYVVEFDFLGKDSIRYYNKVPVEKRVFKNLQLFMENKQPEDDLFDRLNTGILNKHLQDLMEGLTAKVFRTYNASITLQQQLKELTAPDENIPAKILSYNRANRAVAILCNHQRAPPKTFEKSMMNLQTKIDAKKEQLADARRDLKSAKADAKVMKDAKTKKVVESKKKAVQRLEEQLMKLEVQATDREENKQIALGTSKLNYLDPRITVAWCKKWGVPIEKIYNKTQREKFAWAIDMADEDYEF

Row | SMILES | IC50 (RAJI lymphoma cells) [µM] | Myc protein level (Western blot) [1] | inhibition of DNA relegation (Top1 poison effect) (human Topo1) | % Stability at 6 hrs [2] [%] | % Recovery [3] [%] | % Bound ([3]; 1 μM, 6 h dialysis) [%] | % Recovery [4] [%] | % Bound ([4]; 1 μM, 6 h dialysis) [%] | % Stability at 6 hrs [5] [%]
1 | COc1cc2c3c(n(CCCN4CCCC4)c(=O)c2cc1OC)-c1nc2c(cc1C3=O)OCO2 [G108, 2,3-Dimethoxy-6-(3-(pyrrolidin-1-yl)propyl)-5H-[1,3]dioxolo[4″,5″:5′,6′]pyrido[3′,2′:4,5]cyclopenta[1,2-c]isoquinoline-5,12(6H)-dione] | 1.71 | weak Myc downregulation | minimal effects on DNA relegation |  |  |  |  |  | 
2 | CC(=O)N1CCN(c2ccc(OCC3COC(Cn4ccnc4)(c4ccc(Cl)cc4Cl)O3)cc2)CC1 (stereo not drawn) [Ketoconazole] |  |  |  | 104.96 | 107.45 | 98.01 | 93.23 | 99.26 | 88.82
